The target in assay [1] is T1, human full length PIK3KA H1047R mutant (p110α/p85α complex) (Homo sapiens, UniProt P42336, H1047R).
T1 construct: Recombinant, catalytically active human full length PIK3KA Wild-type and H1047R mutant were purchased as 1:1 complex; 6xHis (N); purchased EMD Millipore Sigma 14-792M
Put plainly: PI3K-alpha kinase (PIK3CA) biochemical activity, H1047R mutant, ADP-Glo. Conditions: for IC50: PI3K-α (PIK3CA) biochemical, H1047R mutant. The source says:
(§1) PI3K-Alpha Kinase (PIK3CA) Activity, Wild-Type and H1047R Mutant and Determining IC50 Values for Inhibitors
(§2) Recombinant, catalytically active human full length PIK3KA Wild-type and H1047R mutant were purchased as 1:1 complex of N-terminal 6× his tagged p110α (catalytic) and untagged p85α (regulatory subunit) from EMD Millipore Sigma (cat. no. 14-602M and 14-792M, respectively). PIP2diC8 (Avanti Polar Lipids Inc., cat. no. 850185) or Soy PI (Avanti Polar Lipids Inc., cat. No. 840044P) was used as lipid substrate. PIP2diC8 or PI lyophilized powder was dissolved in milliQ water to a concentration of 1 mM just before use. 10 mM stock compounds in DMSO were serially diluted 1:3 to generate a 10-point curve and plated using an acoustic liquid handler system (Echo 550 series instrument, Labcyte). A 10× intermediate compound plate (200 uM starting compound concentration and 10% DMSO) was prepared before starting the reaction. A typical reaction mixture (50 uL) comprised 40 mM HEPES buffer, pH 7.4, 25 mM MgCl2, 0.01% v/v triton-X-100, 1% v/v DMSO, 20 mM NaCl, 1-5 nM WT or H1047R PI3K protein, 20 uM ATP, and 50 uM PIP2diC8 or Soy PI. 1% DMSO buffer alone without test compound was employed as MAX control (full activity in the absence of any inhibitor), and no enzyme control was used to determine the level of background Adenosine 5′-diphosphate (ADP) (MIN control). First, Wild-type (WT) and H1047R mutant protein in kinase buffer with all components except ATP were incubated with or without compound at 27° C. for 1 h. After the pre-incubation, the reaction was initiated by the addition of 20 uL of 50 uM ATP (20 uM final concentration). The reaction was allowed to proceed until about 10% conversion of ATP (2 uM ADP) at 27° C. After that time, 5 uL of reaction was mixed with 5 uL of ADP-Kinase Glo Reagent (ADP-Glo Kinase assay kit, Promega cat. no. V9102) supplemented with MgCl2 10 mM to stop the reaction and deplete the remaining ATP for 40 min at room temperature. Then, 10 uL of Kinase Detection Reagent (ADP-Glo Kinase assay kit, Promega cat. no. V9102) was added to simultaneously convert ADP to ATP and allow the newly synthesized ATP to be measured using a luciferase/luciferin reaction. After 30 min at room temperature the light generated was measured using a luminometer (EnVision plate reader, Perkin Elmer). Process data through Genedata-Screener tool. Relative IC50 values are determined using luminescence units by calculating percent inhibition with respect to on-plate “MIN” and “MAX” controls. Data was analyzed using a 4-parameter nonlinear logistic equation (four-parameter logistic concentration-response curve): Y=bot+[(top−bot)/1+(x/IC50)slope] where Y=% inhibition, X=concentration yielding y % inhibition, Bottom=minimum value of y attained by curve, Top=maximum value of y attained by curve and Slope=steepness of curve at IC50. % Inh=[(median Max−x/median Max−median Min)]·100 IC50: concentration of compound that reduces a given response (ligand binding, enzyme response) by 50%. IC50 relative: concentration giving half the compound's maximum response.
(§3) For IC50 values shown in Table A, “A” means IC50<0.5 μM; “B” means IC50 ranging between 0.5 μM and 1.0 μM; “C” means IC50 ranging between 1 μM and 5 μM; “D” means IC50 ranging between 5 μM and 10 μM; “E” means IC50>10 μM.

Assay [2] deals with T2, human full length PIK3KA Wild-type (p110α/p85α complex) (Homo sapiens, UniProt P42336).
T2 construct: Recombinant, catalytically active human full length PIK3KA Wild-type and H1047R mutant were purchased as 1:1 complex; 6xHis (N); purchased EMD Millipore Sigma 14-602M
Put plainly: PI3K-alpha kinase (PIK3CA) biochemical activity, wild-type, ADP-Glo. Conditions: PI3K-α (PIK3CA) biochemical.
From the text: as §1, §2, §3
For orientation: ADP-Glo first removes unused ATP, then detects ADP through luciferase.

Setting [3] is: PIP2diC8 lipid substrate (footnote 1).

T1 sequence (P42336 whole entry H1047R): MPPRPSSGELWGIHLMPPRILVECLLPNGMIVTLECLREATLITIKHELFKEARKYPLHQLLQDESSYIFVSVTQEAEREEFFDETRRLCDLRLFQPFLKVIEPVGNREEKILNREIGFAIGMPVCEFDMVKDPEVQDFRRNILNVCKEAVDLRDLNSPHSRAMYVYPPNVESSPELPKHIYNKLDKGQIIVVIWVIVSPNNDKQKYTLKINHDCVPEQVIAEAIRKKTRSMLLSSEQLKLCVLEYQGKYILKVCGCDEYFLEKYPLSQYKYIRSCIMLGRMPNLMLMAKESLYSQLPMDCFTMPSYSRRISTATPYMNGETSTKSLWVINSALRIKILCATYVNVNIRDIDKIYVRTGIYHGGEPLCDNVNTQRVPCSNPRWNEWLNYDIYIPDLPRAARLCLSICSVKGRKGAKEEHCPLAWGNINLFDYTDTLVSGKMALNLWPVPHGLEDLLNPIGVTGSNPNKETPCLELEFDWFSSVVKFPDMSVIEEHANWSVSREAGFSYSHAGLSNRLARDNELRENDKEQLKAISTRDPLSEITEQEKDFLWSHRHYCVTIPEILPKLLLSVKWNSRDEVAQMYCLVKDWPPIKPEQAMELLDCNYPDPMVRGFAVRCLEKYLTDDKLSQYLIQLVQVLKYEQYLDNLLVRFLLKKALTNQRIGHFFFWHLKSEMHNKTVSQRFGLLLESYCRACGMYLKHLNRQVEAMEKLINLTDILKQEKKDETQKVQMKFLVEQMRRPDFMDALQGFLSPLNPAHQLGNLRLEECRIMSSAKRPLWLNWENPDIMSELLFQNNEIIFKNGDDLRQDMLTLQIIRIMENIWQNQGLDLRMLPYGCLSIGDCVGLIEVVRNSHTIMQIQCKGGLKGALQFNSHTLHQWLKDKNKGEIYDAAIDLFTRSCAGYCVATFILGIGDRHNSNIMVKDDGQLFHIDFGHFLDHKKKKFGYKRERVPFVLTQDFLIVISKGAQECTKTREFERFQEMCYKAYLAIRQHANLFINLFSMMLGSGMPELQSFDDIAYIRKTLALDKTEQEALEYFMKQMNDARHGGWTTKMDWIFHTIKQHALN
T1 sequence (P27986 whole entry partner): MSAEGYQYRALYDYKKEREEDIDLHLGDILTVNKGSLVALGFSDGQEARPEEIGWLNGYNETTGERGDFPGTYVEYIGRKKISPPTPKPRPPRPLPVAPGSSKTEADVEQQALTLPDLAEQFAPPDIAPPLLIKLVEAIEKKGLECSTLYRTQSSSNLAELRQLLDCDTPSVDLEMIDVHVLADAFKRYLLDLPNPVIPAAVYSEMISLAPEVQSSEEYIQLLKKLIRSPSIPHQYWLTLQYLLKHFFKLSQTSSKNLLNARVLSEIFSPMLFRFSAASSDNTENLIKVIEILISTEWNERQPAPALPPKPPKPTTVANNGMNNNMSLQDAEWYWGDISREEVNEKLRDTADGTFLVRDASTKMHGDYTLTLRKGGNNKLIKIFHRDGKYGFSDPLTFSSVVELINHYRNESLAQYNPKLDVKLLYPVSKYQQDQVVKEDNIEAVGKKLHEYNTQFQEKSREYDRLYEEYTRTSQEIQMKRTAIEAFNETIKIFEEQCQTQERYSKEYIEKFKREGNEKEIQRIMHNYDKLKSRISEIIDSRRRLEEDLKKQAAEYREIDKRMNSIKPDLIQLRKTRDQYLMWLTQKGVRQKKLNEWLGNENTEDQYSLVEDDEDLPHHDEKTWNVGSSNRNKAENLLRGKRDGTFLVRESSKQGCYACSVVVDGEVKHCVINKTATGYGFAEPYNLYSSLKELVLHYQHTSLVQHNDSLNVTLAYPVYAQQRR

As to `Cc1cc([C@@H](C)Nc2ccccc2C(=O)O)c2oc(-c3ccc(F)cc3F)cc(=O)c2c1` [Example 57, 2-[[(1R)-1-[2-(2,4-Difluorophenyl)-6-methyl-4-oxo-chromen-8-yl]ethyl]amino]benzoic acid 2,2,2-trifluoroacetic acid], the IC50 – broadly, the point on the concentration scale where inhibition reaches its midpoint – in assay [1] (Soy PI lipid substrate) was less than 500 nM; in assay [2] (Soy PI lipid substrate), 1000 to 5000 nM.
Consider `Cc1cc(C(C)Nc2ccc(Cl)nc2C(=O)O)c2oc(-c3ccccc3)c(I)c(=O)c2c1` (single isomer, unassigned; isomer i) [Example 153, 6-Chloro-3-[1-(3-iodo-6-methyl-4-oxo-2-phenyl-chromen-8-yl)ethylamino]pyridine-2-carboxylic acid, Isomer I], for which the IC50 in assay [1] (Soy PI lipid substrate) and in assay [2] (Soy PI lipid substrate) was 1000 to 5000 nM in each case.
As to `Cc1cc([C@@H](C)Nc2ccccc2C(=O)O)c2oc(-c3ccc(F)cc3)cc(=O)c2c1` [Example 19, 2-[[(1R)-1-[2-(4-Fluorophenyl)-6-methyl-4-oxo-chromen-8-yl]ethyl]amino]benzoic acid], the IC50 in assay [1] (setting [3]) is less than 500 nM; in assay [2] (setting [3]), 1000 to 5000 nM.
On the same counts, the results for `Cc1cc([C@@H](C)Nc2ccccc2C(=O)O)c2oc(-c3cccc(C#N)c3)cc(=O)c2c1` [Example 16, 2-[[(1R)-1-[2-(3-Cyanophenyl)-6-methyl-4-oxo-chromen-8-yl]ethyl]amino]benzoic acid] are less than 500 nM and 500 to 1000 nM.
With `Cc1cc(C(C)Nc2ccccc2C(=O)O)c2oc(-c3cccc(C(C)(C)C#N)c3)cc(=O)c2c1` (single isomer, unassigned; isomer 2) [Example 5, 2-[1-[2-[3-(1-Cyano-1-methyl-ethyl)phenyl]-6-methyl-4-oxo-chromen-8-yl]ethylamino]benzoic acid, Isomer 2], the IC50 was less than 500 nM in assay [1] (Soy PI lipid substrate) and more than 10000 nM in assay [2] (Soy PI lipid substrate).
`Cc1cc([C@@H](C)Nc2ccccc2C(=O)O)c2oc(-c3ccc(C#N)cc3)cc(=O)c2c1` [Example 17, 2-[[(1R)-1-[2-(4-Cyanophenyl)-6-methyl-4-oxo-chromen-8-yl]ethyl]amino]benzoic acid]: the IC50 in assay [1] (setting [3]) and in assay [2] (setting [3]) was less than 500 nM in each case.
As to `C[C@@H](Nc1ccccc1C(=O)O)c1cc(F)cc2c(=O)cc(-c3cccc(C(F)F)c3)oc12` [Example 80, 2-[[(1R)-1-[2-[3-(Difluoromethyl)phenyl]-6-fluoro-4-oxo-chromen-8-yl]ethyl]amino]benzoic acid 2,2,2-trifluoroacetic acid], the IC50 in assay [1] (Soy PI lipid substrate) was less than 500 nM; in assay [2] (Soy PI lipid substrate), 5000 to 10000 nM.
Consider `Cc1cc(C(C)Nc2ccccc2C(=O)O)c2oc(-c3ccccc3)c(C#N)c(=O)c2c1` (stereo not drawn) [Example 10, 2-[1-(3-Cyano-6-methyl-4-oxo-2-phenyl-chromen-8-yl)ethylamino]benzoic acid 2,2,2-trifluoroacetic acid], for which the IC50 in assay [1] (Soy PI lipid substrate) was less than 500 nM; in assay [2] (Soy PI lipid substrate) it was 1000 to 5000 nM.
`Cc1cc([C@@H](C)Nc2ccc(F)cc2C(=O)O)c2oc(-c3ccccc3)cc(=O)c2c1` [Example 20, 5-Fluoro-2-[[(1R)-1-(6-methyl-4-oxo-2-plienyl-chromen-8-yl)ethyl]amino]benzoic acid]: the IC50 in assay [1] (setting [3]) and in assay [2] (setting [3]) was less than 500 nM throughout.
As for `Cc1cc(C(C)Nc2cccc(F)c2C(=O)O)c2oc(-c3ccccc3F)cc(=O)c2c1` (single isomer, unassigned; isomer 1) [Example 107, 2-Fluoro-6-[1-[2-(2-fluorophenyl)-6-methyl-4-oxo-chromen-8-yl]ethylamino]benzoic acid, Isomer 1], the results for the IC50 in assay [1] (Soy PI lipid substrate) and in assay [2] (Soy PI lipid substrate) were less than 500 nM and 1000 to 5000 nM, respectively.
As for `Cc1cc([C@@H](C)Nc2ccccc2C(=O)O)c2oc(-c3cccc(C(F)F)c3)cc(=O)c2c1` [Example 71, 2-[[(1R)-1-[2-[3-(Difluoromethyl)phenyl]-6-methyl-4-oxo-chromen-8-yl]ethyl]amino]benzoic acid], the IC50 was less than 500 nM in assay [1] (Soy PI lipid substrate) and 1000 to 5000 nM in assay [2] (Soy PI lipid substrate).
For the compound `Cc1cc(C(C)Nc2ccccc2C(=O)O)c2oc(-c3ccc(S(C)(=O)=O)cc3)cc(=O)c2c1` (single isomer, unassigned; isomer 1) [Example 47, 2-[1-[6-Methyl-2-(4-methylsulfonylphenyl)-4-oxo-chromen-8-yl]ethylamino]benzoic acid, Isomer 1], the IC50 in assay [1] (Soy PI lipid substrate) and in assay [2] (Soy PI lipid substrate) was more than 10000 nM each time.
On to `Cc1cc(C(C)Nc2ccccc2C(=O)O)c2oc(-c3cccc(-c4cnn(C)c4)c3)cc(=O)c2c1.O=C(O)C(F)(F)F` (stereo not drawn) [Example 13, 2-[1-[6-Methyl-2-[3-(1-methylpyrazol-4-yl)phenyl]-4-oxo-chromen-8-yl]ethylamino]benzoic acid 2,2,2-trifluoroacetic acid], for which the results for the IC50 in assay [1] (Soy PI lipid substrate) and in assay [2] (Soy PI lipid substrate) were less than 500 nM and 1000 to 5000 nM, respectively. Further, the “IC50 WT/IC50 H1047R” value in assay [1] (ratio of biochemical IC50 wild-type to H1047R mutant, Soy PI lipid substrate) was “*For Example 13, IC50 WT/IC50 H1047R = 7.7”.
As for `Cc1cc([C@@H](C)Nc2ccc(C(F)(F)F)nc2C(=O)O)c2oc(-c3ccccc3)cc(=O)c2c1` [Example 27, 3-[[(1R)-1-(6-Methyl-4-oxo-2-phenyl-chromen-8-yl)ethyl]amino]-6-(trifluoromethyl)-pyridine-2-carboxylic acid], the IC50 in assay [1] (Soy PI lipid substrate) is less than 500 nM; in assay [2] (Soy PI lipid substrate), 1000 to 5000 nM.
In the case of `CC(Nc1ccccc1C(=O)O)c1cc(F)c(F)c2c(=O)cc(-c3ccccc3)oc12` (stereo not drawn) [Example 64, 2-[1-(5,6-Difluoro-4-oxo-2-phenyl-chromen-8-yl)ethylamino]benzoic acid 2,2,2-trifluoroacetic acid], the IC50 in assay [1] (Soy PI lipid substrate) is less than 500 nM; in assay [2] (Soy PI lipid substrate), more than 10000 nM.
On to `Cc1cc([C@@H](C)Nc2ccccc2C(=O)O)c2oc(-c3ccccc3)c(I)c(=O)c2c1` [Example 79, 2-[[(1R)-1-(3-Iodo-6-methyl-4-oxo-2-phenyl-chromen-8-yl)ethyl]amino]benzoic acid 2,2,2-trifluoroacetic acid], for which the figures for the IC50 in assay [1] (Soy PI lipid substrate) and in assay [2] (Soy PI lipid substrate) were less than 500 nM and 500 to 1000 nM, respectively.
As to `Cc1cc([C@@H](C)Nc2ccccc2C(=O)O)c2oc(-c3ccc(C#N)c(F)c3)cc(=O)c2c1` [Example 56, 2-[[(1R)-1-[2-(4-Cyano-3-fluoro-phenyl)-6-methyl-4-oxo-chromen-8-yl]ethyl]amino]benzoic acid 2,2,2-trifluoroacetic acid], the values for the IC50 in assay [1] (Soy PI lipid substrate) and in assay [2] (Soy PI lipid substrate) were less than 500 nM and 1000 to 5000 nM, respectively.
On to `Cc1cc([C@@H](C)Nc2cncnc2C(=O)O)c2oc(-c3ccccc3)c(C)c(=O)c2c1` [Example 74, 5-[[(1R)-1-(3,6-Dimethyl-4-oxo-2-phenyl-chromen-8-yl)ethyl]amino]pyrimidine-4-carboxylic acid], for which the IC50 in assay [1] (Soy PI lipid substrate) was less than 500 nM; in assay [2] (Soy PI lipid substrate) it was more than 10000 nM.
In the case of `Cc1cc(C(C)Nc2ccccc2C(=O)O)c2oc(-c3cccc(C(C)(C)C#N)c3)cc(=O)c2c1` (stereo not drawn) [Example 3, 2-[1-[2-[3-(1-Cyano-1-methyl-ethyl)phenyl]-6-methyl-4-oxo-chromen-8-yl]ethylamino]benzoic acid 2,2,2-trifluoroacetic acid], the IC50 was less than 500 nM in assay [1] (Soy PI lipid substrate) and 5000 to 10000 nM in assay [2] (Soy PI lipid substrate).

The values are drawn from patent US11873295B2, “Allosteric chromenone inhibitors of phosphoinositide 3-kinase (PI3K) for the treatment of disease” (Petra Pharma Corporation, priority 2021, dated 2024).
